Measured values as given in ChEMBL document CHEMBL1201862, “PubChem BioAssay data set” (2004).
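Five compound concentrations were applied to cells in 96-well plates for 48 hours; endpoints were derived by simple linear interpolation of the resulting dose-response curve. Abbreviation: GI50, concentration required for 50% inhibition of growth.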 Calls of active or inactive are those of the source. Rule as the data show it: active = GI50 up to about 1.1 µM and inactive = higher.

Columns and labels:
Assay in all cases: NCI tumour cell line growth inhibition, 48 h
NCI-H226 = tested on: NCI-H226
SF-268 = tested on: SF-268
HOP-62 = tested on: HOP-62
Malme-3M = tested on: Malme-3M
HCT-116 = tested on: HCT-116
IGROV-1 = tested on: IGROV-1
UACC-62 = tested on: UACC-62
HT-29 = tested on: HT-29
SK-OV-3 = tested on: SK-OV-3
SF-295 = tested on: SF-295
RPMI-8226 = tested on: RPMI-8226
SK-MEL-2 = tested on: SK-MEL-2
CCRF-CEM = tested on: CCRF-CEM
M14 = tested on: M14
SW-620 = tested on: SW-620
OVCAR-8 = tested on: OVCAR-8
NCI-H522 = tested on: NCI-H522
786-0 = tested on: 786-0
HOP-92 = tested on: HOP-92

Measured: GI50

O=C1C(Cl)C(c2ccccc2)N1n1cnc2ccccc2c1=O (centres undefined)
inactive: NCI-H226 28.4 µM | SF-268 85.3 µM | HOP-62 > 100 µM | Malme-3M > 100 µM | HCT-116 > 100 µM | IGROV-1 > 100 µM | UACC-62 > 100 µM | HT-29 > 100 µM | SK-OV-3 74.6 µM | SF-295 > 100 µM | RPMI-8226 54.2 µM | SK-MEL-2 > 100 µM | CCRF-CEM > 100 µM | M14 > 100 µM | SW-620 > 100 µM | OVCAR-8 > 100 µM | NCI-H522 55.3 µM | 786-0 > 100 µM

O=C1/C(=C/c2cc(O)c(O)c(O)c2)Oc2cc(O)cc(OC3OC(CO)C(O)C(O)C3O)c21 (centres undefined)
inactive: HCT-116 16.3 µM | IGROV-1 36.2 µM | UACC-62 16 µM | HT-29 23.9 µM | SK-OV-3 46.1 µM | SF-295 16.5 µM | HOP-92 3.82 µM | RPMI-8226 20.2 µM | SK-MEL-2 16.2 µM | CCRF-CEM 17.5 µM | M14 21.5 µM | SW-620 24.1 µM | OVCAR-8 18.2 µM | 786-0 27.9 µM

Cc1ccc2c(c1)CNc1ccc(C)cc1CN2
inactive: NCI-H226 > 100 µM | SF-268 > 100 µM | HOP-62 > 100 µM | HCT-116 > 100 µM | IGROV-1 > 100 µM | UACC-62 > 100 µM | HT-29 > 100 µM | SK-OV-3 > 100 µM | SF-295 > 100 µM | HOP-92 > 100 µM | RPMI-8226 > 100 µM | SK-MEL-2 > 100 µM | CCRF-CEM > 100 µM | M14 > 100 µM | SW-620 > 100 µM | OVCAR-8 > 100 µM | NCI-H522 > 100 µM | 786-0 > 100 µM

C/N=C(\N=c1/ss/c(=N\C)n1C)N(C)C.[O-][Cl+3]([O-])([O-])O
inactive: NCI-H226 45.2 µM | SF-268 > 100 µM | IGROV-1 > 100 µM | UACC-62 > 100 µM | HT-29 > 100 µM | SK-OV-3 > 100 µM | SF-295 > 100 µM | HOP-92 > 100 µM | RPMI-8226 74.6 µM | M14 > 100 µM | SW-620 > 100 µM | OVCAR-8 97.1 µM | NCI-H522 76 µM | 786-0 > 100 µM

NC(CCc1nc(-c2ccccc2)cs1)C(=O)O (centres undefined)
inactive: NCI-H226 > 100 µM | Malme-3M > 100 µM | HCT-116 > 100 µM | IGROV-1 > 100 µM | UACC-62 > 100 µM | HT-29 > 100 µM | SK-OV-3 > 100 µM | SF-295 > 100 µM | HOP-92 > 100 µM | RPMI-8226 > 100 µM | CCRF-CEM > 100 µM | M14 > 100 µM | SW-620 > 100 µM | OVCAR-8 > 100 µM | NCI-H522 > 100 µM | 786-0 81.7 µM

COC(=O)C1Cc2c([nH]c3ccccc23)C(C2CCCCC2)N1 (centres undefined)
inactive: NCI-H226 > 100 µM | SF-268 > 100 µM | Malme-3M > 100 µM | HCT-116 > 100 µM | IGROV-1 83.9 µM | UACC-62 > 100 µM | HT-29 > 100 µM | SK-OV-3 > 100 µM | SF-295 > 100 µM | HOP-92 > 100 µM | SK-MEL-2 > 100 µM | CCRF-CEM > 100 µM | M14 > 100 µM | SW-620 > 100 µM | OVCAR-8 > 100 µM | NCI-H522 > 100 µM | 786-0 > 100 µM

CCOC(=O)C1(C/C=C(/C)Cl)CCCC1=O (centres undefined)
inactive: NCI-H226 > 100 µM | SF-268 > 100 µM | HOP-62 > 100 µM | Malme-3M > 100 µM | HCT-116 > 100 µM | IGROV-1 > 100 µM | UACC-62 > 100 µM | HT-29 > 100 µM | SK-OV-3 > 100 µM | SF-295 > 100 µM | RPMI-8226 26.9 µM | SK-MEL-2 > 100 µM | CCRF-CEM > 100 µM | M14 > 100 µM | OVCAR-8 > 100 µM | NCI-H522 > 100 µM | 786-0 > 100 µM
